Assay results as given in PubChem BioAssay (NCI).
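Compound exposure: 48 hours, 5 concentrations, 96-well plates. Abbreviation: GI50, concentration required for 50% inhibition of growth. TGI: total growth inhibition.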

How the values were obtained:
Assay in all cases: growth of human tumour cells (NCI), 48 h
[1] = test system: 786-0 renal
[2] = test system: A498 renal
[3] = test system: A549 NSCLC
[4] = test system: ACHN renal
[5] = test system: BT-549 breast
[6] = test system: CAKI-1 renal
[7] = test system: CCRF-CEM leukemia
[8] = test system: COLO 205 colon
[9] = test system: DU-145 prostate
[10] = test system: EKVX NSCLC
[11] = test system: HCC-2998 colon
[12] = test system: HCT-116 colon
[13] = test system: HCT-15 colon
[14] = test system: HL-60(TB) leukemia
[15] = test system: HOP-62 NSCLC
[16] = test system: HS 578T breast
[17] = test system: HT29 colon
[18] = test system: IGROV1 ovarian
[19] = test system: K-562 leukemia
[20] = test system: KM12 colon
[21] = test system: LOX IMVI melanoma
[22] = test system: M14 melanoma
[23] = test system: MCF7 breast
[24] = test system: MDA-MB-231 breast
[25] = test system: MDA-MB-435
[26] = test system: MOLT-4 leukemia
[27] = test system: NCI-H226 lung
[28] = test system: NCI-H23 lung
[29] = test system: NCI-H460 lung
[30] = test system: NCI-H522 lung
[31] = test system: NCI/ADR-RES ovarian
[32] = test system: OVCAR-3 ovarian
[33] = test system: OVCAR-4 ovarian
[34] = test system: OVCAR-5 ovarian
[35] = test system: OVCAR-8 ovarian
[36] = test system: PC-3 prostate
[37] = test system: RPMI-8226 leukemia
[38] = test system: RXF 393 renal
[39] = test system: SF-268 CNS
[40] = test system: SF-295 CNS
[41] = test system: SF-539 CNS
[42] = test system: SK-MEL-2 melanoma
[43] = test system: SK-MEL-28 melanoma
[44] = test system: SK-MEL-5 melanoma
[45] = test system: SK-OV-3 ovarian
[46] = test system: SN12C renal
[47] = test system: SNB-19 CNS
[48] = test system: SNB-75 CNS
[49] = test system: SR leukemia
[50] = test system: SW-620 colon
[51] = test system: T-47D breast
[52] = test system: TK-10 renal
[53] = test system: U251 CNS
[54] = test system: UACC-257 melanoma
[55] = test system: UACC-62 melanoma
[56] = test system: UO-31 renal

## NC(=O)c1sc(-n2cnc3ccccc32)cc1OCc1ccccc1Br
[1]
  GI50: 11.1 µM
  TGI: > 25 µM
[2]
  GI50: 4.11 µM
  TGI: 14.4 µM
[3]
  GI50: 6.06 µM
  TGI: > 25 µM
[4]
  GI50: 15.8 µM
  TGI: > 25 µM
[5]
  GI50: 9.68 µM
  TGI: > 25 µM
[6]
  GI50: 14.2 µM
  TGI: > 25 µM
[7]
  GI50: 1.34 µM
  TGI: > 25 µM
[8]
  GI50: 1.58 µM
  TGI: 23.2 µM
[9]
  GI50: 2.02 µM
  TGI: 7.19 µM
[10]
  GI50: 17.9 µM
  TGI: > 25 µM
[11]
  GI50: 6.38 µM
  TGI: > 25 µM
[12]
  GI50: 2.61 µM
  TGI: > 25 µM
[13]
  GI50: 6.95 µM
  TGI: > 25 µM
[14]
  GI50: 1.28 µM
  TGI: > 25 µM
[15]
  GI50: 3.67 µM
  TGI: > 25 µM
[16]
  GI50: 9.11 µM
  TGI: > 25 µM
[17]
  GI50: 1.06 µM
  TGI: > 25 µM
[18]
  GI50: 11 µM
  TGI: > 25 µM
[19]
  GI50: 6.71 µM
  TGI: > 25 µM
[20]
  GI50: 1.26 µM
  TGI: > 25 µM
[21]
  GI50: 1.98 µM
  TGI: > 25 µM
[22]
  GI50: 5.71 µM
  TGI: > 25 µM
[23]
  GI50: 0.86 µM
  TGI: > 25 µM
[24]
  GI50: 4.96 µM
  TGI: > 25 µM
[25]
  GI50: 0.795 µM
  TGI: 5.47 µM
[26]
  GI50: 3.56 µM
  TGI: > 25 µM
[27]
  GI50: 11.9 µM
  TGI: > 25 µM
[28]
  GI50: 4.03 µM
  TGI: > 25 µM
[29]
  GI50: 2.36 µM
  TGI: > 25 µM
[30]
  GI50: 3.99 µM
  TGI: 12.7 µM
[31]
  GI50: 0.869 µM
  TGI: > 25 µM
[32]
  GI50: 1.55 µM
  TGI: 17.6 µM
[33]
  GI50: > 25 µM
  TGI: > 25 µM
[34]
  GI50: 4.94 µM
  TGI: > 25 µM
[35]
  GI50: 4.83 µM
  TGI: 23.5 µM
[36]
  GI50: 10.3 µM
  TGI: > 25 µM
[37]
  GI50: 12.6 µM
  TGI: > 25 µM
[38]
  GI50: 1.73 µM
  TGI: > 25 µM
[39]
  GI50: 4.98 µM
  TGI: > 25 µM
[40]
  GI50: 3.9 µM
  TGI: > 25 µM
[41]
  GI50: 5.47 µM
  TGI: > 25 µM
[42]
  GI50: 6.43 µM
  TGI: > 25 µM
[43]
  GI50: > 25 µM
  TGI: > 25 µM
[44]
  GI50: 4.75 µM
  TGI: > 25 µM
[45]
  GI50: 6.94 µM
  TGI: > 25 µM
[46]
  GI50: 14.2 µM
  TGI: > 25 µM
[47]
  GI50: 11.6 µM
  TGI: > 25 µM
[48]
  GI50: 10.2 µM
  TGI: > 25 µM
[49]
  GI50: 3.09 µM
  TGI: > 25 µM
[50]
  GI50: 1.17 µM
  TGI: > 25 µM
[51]
  GI50: 23.1 µM
  TGI: > 25 µM
[52]
  GI50: 11.3 µM
  TGI: > 25 µM
[53]
  GI50: 4.44 µM
  TGI: > 25 µM
[54]
  GI50: 17.3 µM
  TGI: > 25 µM
[55]
  GI50: 5.88 µM
  TGI: > 25 µM
[56]
  GI50: 15.4 µM
  TGI: > 25 µM
